26 molecules from US20200079758A1, “[4-(PHENYLSULFONYL)PIPERAZIN-1-YL](1H-1,2,3-TRIAZOL-4-YL)METHANONES” (priority 2016, published 2020) can be followed below.

The target of the assay is T1, recombinant human AKR1C3 (Homo sapiens, UniProt P42330).
T1 construct: GST (cleaved yes); made in house; host or cells: E. coli
T1 sequence (P42330 1-323): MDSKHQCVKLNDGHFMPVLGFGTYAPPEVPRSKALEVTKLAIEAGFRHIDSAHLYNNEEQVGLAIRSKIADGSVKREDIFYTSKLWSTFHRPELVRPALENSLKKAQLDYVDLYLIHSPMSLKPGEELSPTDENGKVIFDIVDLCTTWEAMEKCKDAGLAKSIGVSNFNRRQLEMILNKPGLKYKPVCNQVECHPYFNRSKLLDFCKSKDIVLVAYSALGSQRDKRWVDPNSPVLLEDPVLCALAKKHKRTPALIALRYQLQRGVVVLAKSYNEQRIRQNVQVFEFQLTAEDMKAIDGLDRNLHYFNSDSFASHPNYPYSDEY
The assay can be described thus: AKR1C3-inhibitory activity assay (generation of Coumberol from Coumberone). In kind it is biochemical. The settings on record: Coumberone 0.3 μM, NADPH 10 μM, 22° C., typically 90 min, average or median values. Here is the method:
The AKR1C3-inhibitory activity of the substances of the present invention was measured in the AKR1C3 assay described in the paragraphs below.
Essentially, the enzyme activity is measured by quantification of the generation of Coumberol from Coumberone (Halim et al. J. AM. CHEM. SOC. 2008, 130:14123-14128 and Yee et al. Proc. Natl. Acad. Sci. USA 2006, 103:13304-13309). In this test, the increase of the highly fluorescent Coumberol by NADPH- (nicotinamide adenine dinucleotide phosphate)-dependent reduction of the non-fluorescent Coumberone by AKR1C3 was determined.
The enzyme used was recombinant human AKR1C3 (Aldo-keto reductase family 1 member C3; GenBank Accession No. NM_003739). This was expressed in E. coli as GST (glutathione S transferase) fusion protein and purified by glutathione Sepharose affinity chromatography. The GST was removed by digestion with thrombin and subsequent size exclusion chromatography (Dufort, I., Rheault, P., Huang, X F., Soucy, P., and Luu-The, V., Endocrinology 140, 568-574 (1999)).
For the assay, 50 nl of a 100-fold concentrated solution of the test substance in DMSO were pipetted into a black low-volume 384-well microtiter plate (Greiner Bio-One, Frickenhausen, Germany), 2.5 μl of a solution of AKR1C3 in assay buffer [50 mM potassium phosphate buffer pH 7, 1 mM DTT, 0.0022% (w/v) Pluronic F-127, 0.01% BSA (w/v) and protease inhibitor cocktail (Complete, EDTA-free Protease Inhibitor Cocktail from Roche)] were added and the mixture was incubated for 15 min to allow pre-binding of the substances to the enzyme prior to the enzyme reaction. The enzyme reaction was then started by addition of 2.5 μl of a solution of NADPH (20 μM→final concentration in 5 μl of assay volume is 10 μM) and Coumberone (0.6 μM→final concentration in 5 μl of assay volume is 0.3 μM) in assay buffer, and the resulting mixture was incubated at 22° C. for the reaction time of typically 90 min. The concentration of the AKR1C3 and the reaction time was adapted to the respective activity of the enzyme preparation and adjusted such that the assay was carried out in the linear range. Typical AKR1C3 concentrations were in the region of 1 nM. The reaction was stopped by addition of 2.5 μl of a stop solution consisting of 3 μM EM-1404 as inhibitor (U.S. Pat. No. 6,541,463) in 50 mM HEPES pH7.5 (3 μM EM-1404→final concentration in 7.5 μl of assay volume is 1 μM). The fluorescence of the Coumberole was then measured at 520 nm (excitation at 380 nm) using a suitable measuring instrument (Pherastar from BMG Labtechnologies). The intensity of the fluorescence was used as a measure of the amount of Coumberole formed and thus of the enzyme activity of AKR1C3. The data were normalized (enzyme reaction without inhibitor=0% inhibition; all other assay components, but no enzyme=100% inhibition).
As a reminder, the IC50 is the concentration that gives 50% inhibition. Turning to `CC1(C)CN(C(=O)c2c[nH]nn2)CCN1S(=O)(=O)c1cccc(C(F)(F)F)c1` [Example 28, (3,3-dimethyl-4-{[3-(trifluoromethyl)phenyl]sulfonyl}piperazin-1-yl)(1H-1,2,3-triazol-4-yl)methanone], the half-maximal inhibitory concentration (IC50) was determined as 3 nM. As for `CC1(C)CN(C(=O)c2c[nH]nn2)CCN1S(=O)(=O)c1cc(F)cc(F)c1` [Example 29, {4-[(3,5-difluorophenyl)sulfonyl]-3,3-dimethylpiperazin-1-yl}(1H-1,2,3-triazol-4-yl)methanone], the figure is 11 nM; as for `CC1(C)CN(C(=O)c2cnn[nH]2)CCN1S(=O)(=O)c1ccc(F)cc1` [Example 30, {4-[(4-fluorophenyl)sulfonyl]-3,3-dimethylpiperazin-1-yl}(1H-1,2,3-triazol-5-yl)methanone], 71 nM; as for `Cc1ccccc1S(=O)(=O)N1CCN(C(=O)c2cnn[nH]2)CC1(C)C` [Example 31, {3,3-dimethyl-4-[(2-methylphenyl)sulfonyl]piperazin-1-yl}(1H-1,2,3-triazol-5-yl)methanone], 5 nM. Take `CC1(C)CN(C(=O)c2cnn[nH]2)CCN1S(=O)(=O)c1ccccc1Cl` [Example 32, {4-[(2-chlorophenyl)sulfonyl]-3,3-dimethylpiperazin-1-yl}(1H-1,2,3-triazol-5-yl)methanone]: the concentration for half-maximal inhibition (IC50) turned out to be 15 nM. With `Cc1cccc(S(=O)(=O)N2CCN(C(=O)c3cnn[nH]3)CC2(C)C)c1` [Example 33, {3,3-dimethyl-4-[(3-methylphenyl)sulfonyl]piperazin-1-yl}(1H-1,2,3-triazol-5-yl)methanone], the half-inhibitory concentration (IC50) is 10 nM. For the molecule `CC1(C)CN(C(=O)c2cnn[nH]2)CCN1S(=O)(=O)c1ccccc1F` [Example 34, {4-[(2-fluorophenyl)sulfonyl]-3,3-dimethylpiperazin-1-yl}(1H-1,2,3-triazol-5-yl)methanone], the 50% inhibitory concentration (IC50) was 16 nM.

Consider `CC1(C)CN(C(=O)c2cnn[nH]2)CCN1S(=O)(=O)c1c(F)cccc1F` [Example 35, {4-[(2,6-difluorophenyl)sulfonyl]-3,3-dimethylpiperazin-1-yl}(1H-1,2,3-triazol-5-yl)methanone], for which the IC50 came out at 46 nM. Consider `CC1(C)CN(C(=O)c2cnn[nH]2)CCN1S(=O)(=O)c1ccc(F)c(F)c1` [Example 36, {4-[(3,4-difluorophenyl)sulfonyl]-3,3-dimethylpiperazin-1-yl}(1H-1,2,3-triazol-5-yl)methanone], for which the 50% inhibitory concentration (IC50) turned out to be 26 nM. To `CC1(C)CN(C(=O)c2cnn[nH]2)CCN1S(=O)(=O)c1cc(F)ccc1F` [Example 37, {4-[(2,5-difluorophenyl)sulfonyl]-3,3-dimethylpiperazin-1-yl}(1H-1,2,3-triazol-5-yl)methanone] belongs 8 nM. Consider `C[C@@H]1CN(C(=O)c2c[nH]nn2)C[C@H](C)N1S(=O)(=O)c1ccccc1` [Example 38, [(3R,5S)-3,5-dimethyl-4-(phenylsulfonyl)piperazin-1-yl](1H-1,2,3-triazol-4-yl)methanone], for which the IC50 amounted to 14 nM. With `C[C@@H]1CN(C(=O)c2cnn[nH]2)C[C@H](C)N1S(=O)(=O)c1cccc(Cl)c1` [Example 39, {(3R,5S)-4-[(3-chlorophenyl)sulfonyl]-3,5-dimethylpiperazin-1-yl}(1H-1,2,3-triazol-5-yl)methanone], the IC50 amounted to 3 nM. With `C[C@@H]1CN(C(=O)c2cnn[nH]2)C[C@H](C)N1S(=O)(=O)c1cc(Cl)cc(Cl)c1` [Example 40, {(3R,5S)-4-[(3,5-dichlorophenyl)sulfonyl]-3,5-dimethylpiperazin-1-yl}(1H-1,2,3-triazol-5-yl)methanone], the half-maximal inhibitory concentration (IC50) was determined as 2 nM. Take `C[C@@H]1CN(C(=O)c2cnn[nH]2)C[C@H](C)N1S(=O)(=O)c1cccc(F)c1` [Example 41, {(3R,5S)-4-[(3-fluorophenyl)sulfonyl]-3,5-dimethylpiperazin-1-yl}(1H-1,2,3-triazol-5-yl)methanone]: the IC50 stood at 9 nM. On to `C[C@@H]1CN(C(=O)c2cnn[nH]2)C[C@H](C)N1S(=O)(=O)c1cc(F)cc(F)c1` [Example 42, {(3R,5S)-4-[(3,5-difluorophenyl)sulfonyl]-3,5-dimethylpiperazin-1-yl}(1H-1,2,3-triazol-5-yl)methanone], for which the concentration for half-maximal inhibition (IC50) was 9 nM. For the molecule `C[C@@H]1CN(S(=O)(=O)c2cc(Cl)ccc2Cl)C[C@H](C)N1C(=O)c1c[nH]nn1` [Example 43, {(2R,6S)-4-[(2,5-dichlorophenyl)sulfonyl]-2,6-dimethylpiperazin-1-yl}(1H-1,2,3-triazol-4-yl)methanone], the concentration for half-maximal inhibition (IC50) was 2 nM. With `C[C@@H]1CN(S(=O)(=O)c2ccc(F)cc2)C[C@H](C)N1C(=O)c1c[nH]nn1` [Example 44, {(2R,6S)-4-[(4-fluorophenyl)sulfonyl]-2,6-dimethylpiperazin-1-yl}(1H-1,2,3-triazol-4-yl)methanone], the half-inhibitory concentration (IC50) stood at 48 nM. As for `Cc1ccccc1S(=O)(=O)N1C[C@@H](C)N(C(=O)c2c[nH]nn2)[C@@H](C)C1` [Example 45, {(2R,6S)-2,6-dimethyl-4-[(2-methylphenyl)sulfonyl]piperazin-1-yl}(1H-1,2,3-triazol-4-yl)methanone], the half-inhibitory concentration (IC50) was 1 nM.

On to `C[C@@H]1CN(S(=O)(=O)c2ccccc2Cl)C[C@H](C)N1C(=O)c1c[nH]nn1` [Example 46, {(2R,6S)-4-[(2-chlorophenyl)sulfonyl]-2,6-dimethylpiperazin-1-yl}(1H-1,2,3-triazol-4-yl)methanone], for which the 50% inhibitory concentration (IC50) came out at 2 nM.

Turning to `C[C@@H]1CN(S(=O)(=O)c2ccccc2C(F)(F)F)C[C@H](C)N1C(=O)c1c[nH]nn1` [Example 47, [(2R,6S)-2,6-dimethyl-4-{[2-(trifluoromethyl)phenyl]sulfonyl}piperazin-1-yl](1H-1,2,3-triazol-4-yl)methanone], the concentration for half-maximal inhibition (IC50) amounted to 2 nM. `C[C@@H]1CN(S(=O)(=O)c2cccc(Cl)c2)C[C@H](C)N1C(=O)c1c[nH]nn1` [Example 48, {(2R,6S)-4-[(3-chlorophenyl)sulfonyl]-2,6-dimethylpiperazin-1-yl}(1H-1,2,3-triazol-4-yl)methanone]: the IC50 turned out to be 3 nM. On to `Cc1cccc(S(=O)(=O)N2C[C@@H](C)N(C(=O)c3c[nH]nn3)[C@@H](C)C2)c1` [Example 49, {(2R,6S)-2,6-dimethyl-4-[(3-methylphenyl)sulfonyl]piperazin-1-yl}(1H-1,2,3-triazol-4-yl)methanone], for which the 50% inhibitory concentration (IC50) came to 6 nM. For the molecule `C[C@@H]1CN(S(=O)(=O)c2cccc(Br)c2)C[C@H](C)N1C(=O)c1c[nH]nn1` [Example 50, {(2R,6S)-4-[(3-bromophenyl)sulfonyl]-2,6-dimethylpiperazin-1-yl}(1H-1,2,3-triazol-4-yl)methanone], the half-maximal inhibitory concentration (IC50) worked out at 3 nM. Consider `C[C@@H]1CN(S(=O)(=O)c2ccccc2F)C[C@H](C)N1C(=O)c1c[nH]nn1` [Example 51, {(2R,6S)-4-[(2-fluorophenyl)sulfonyl]-2,6-dimethylpiperazin-1-yl}(1H-1,2,3-triazol-4-yl)methanone], for which the 50% inhibitory concentration (IC50) came to 6 nM. `C[C@@H]1CN(S(=O)(=O)c2cccc(F)c2)C[C@H](C)N1C(=O)c1c[nH]nn1` [Example 52, {(2R,6S)-4-[(3-fluorophenyl)sulfonyl]-2,6-dimethylpiperazin-1-yl}(1H-1,2,3-triazol-4-yl)methanone]: the IC50 is 9 nM. For the molecule `C[C@@H]1CN(S(=O)(=O)c2c(F)cccc2F)C[C@H](C)N1C(=O)c1c[nH]nn1` [Example 53, {(2R,6S)-4-[(2,6-difluorophenyl)sulfonyl]-2,6-dimethylpiperazin-1-yl}(1H-1,2,3-triazol-4-yl)methanone], the IC50 is 9 nM.
